# According to patent US7232835B2, “3,6-Disubstituted azabicyclo derivatives as muscarinic receptor antagonists” (Ranbaxy Laboratories Limited, priority 2002, dated 2007):
# Where two headings read alike, the source gives them in different places.
# What was measured:
# M3 muscarinic receptor = target: T1, M3 muscarinic receptor (Rattus norvegicus, UniProt P08483); assay: [3H]-N-methylscopolamine radioligand binding assay, rat submandibular gland membranes; set-up: Receptor Binding Assay Selectivity: reference not given here; conditions: for Ki: rat submandibular gland, [3H]NMS
# T1 construct: Submandibular glands and heart were isolated and placed in ice cold homogenising buffer; from tissue; host or cells: rat submandibular gland membrane homogenate
# isolated rat bladder = assay: tissue or blood; assay type: cell-based; conditions: rat bladder strips, antagonism of carbachol contraction
# M2 muscarinic receptor = target: T2, M2 muscarinic receptor (Rattus norvegicus, UniProt P10980); assay: [3H]-N-methylscopolamine radioligand binding assay, rat heart membranes; conditions: rat heart, [3H]NMS
# T2 construct: Submandibular glands and heart were isolated and placed in ice cold homogenising buffer; from tissue; host or cells: rat heart membrane homogenate
# T2 sequence (P10980 1-466): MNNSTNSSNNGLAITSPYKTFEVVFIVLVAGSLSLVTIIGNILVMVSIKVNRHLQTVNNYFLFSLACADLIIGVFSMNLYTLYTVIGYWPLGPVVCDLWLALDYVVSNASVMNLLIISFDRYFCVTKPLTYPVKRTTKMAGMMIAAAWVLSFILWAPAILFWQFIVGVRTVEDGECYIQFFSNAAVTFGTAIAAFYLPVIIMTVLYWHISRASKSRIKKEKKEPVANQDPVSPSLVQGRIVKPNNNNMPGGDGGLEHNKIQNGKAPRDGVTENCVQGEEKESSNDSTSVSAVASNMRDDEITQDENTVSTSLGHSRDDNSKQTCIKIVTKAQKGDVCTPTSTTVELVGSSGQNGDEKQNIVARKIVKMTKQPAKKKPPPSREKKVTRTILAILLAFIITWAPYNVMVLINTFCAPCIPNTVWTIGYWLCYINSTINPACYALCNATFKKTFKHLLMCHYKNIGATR
# [1] = Table III, read-out: M3 Ki (nm)
# [2] = Table III, read-out: Rat Bladder pKB (converted)
# [3] = Table III, read-out: M2 Ki (nm)
# T1 sequence (P08483 whole entry): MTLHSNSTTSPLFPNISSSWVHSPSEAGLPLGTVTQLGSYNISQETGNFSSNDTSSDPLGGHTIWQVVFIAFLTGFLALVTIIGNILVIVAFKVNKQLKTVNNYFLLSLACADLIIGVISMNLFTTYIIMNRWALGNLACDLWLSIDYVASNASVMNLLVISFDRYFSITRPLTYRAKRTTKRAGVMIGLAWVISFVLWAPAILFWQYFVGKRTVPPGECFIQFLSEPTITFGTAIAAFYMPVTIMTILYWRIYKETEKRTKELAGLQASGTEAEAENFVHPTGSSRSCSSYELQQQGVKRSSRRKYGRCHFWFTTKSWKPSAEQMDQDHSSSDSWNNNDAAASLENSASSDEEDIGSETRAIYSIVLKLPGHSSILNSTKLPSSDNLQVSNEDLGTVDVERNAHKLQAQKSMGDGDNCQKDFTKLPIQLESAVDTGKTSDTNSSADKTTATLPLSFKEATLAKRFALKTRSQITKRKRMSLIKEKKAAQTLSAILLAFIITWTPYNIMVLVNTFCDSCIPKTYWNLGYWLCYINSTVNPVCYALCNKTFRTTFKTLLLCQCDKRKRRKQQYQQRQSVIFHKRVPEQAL
Compound,Ki (M3 muscarinic receptor; [1]),Kb (isolated rat bladder; [2]),Ki (M2 muscarinic receptor; [3]),"Ki (M3 muscarinic receptor; Table II, read-out: Receptor Binding Assay Ki (nM) M 3)","Receptor Binding Assay Selectivity (M3 muscarinic receptor; Table II, ratio M2 Ki / M3 Ki)","Ki (M3 muscarinic receptor; Table III, read-out: M3 Pki (converted))","Kb (isolated rat bladder; Table II, read-out: Functional Assay KB)","Ki (M2 muscarinic receptor; Table II, read-out: Receptor Binding Assay Ki (nM) M2)","Ki (M2 muscarinic receptor; Table III, read-out: M2 pKi (converted))"
"O=C(N[C@H]1[C@@H]2CN(Cc3ccccc3)C[C@@H]21)C(O)(c1ccc(Oc2ccccc2)cc1)C1CCCCC1 (stereo partly drawn) [Compound No. 52, (1α,5α,6α)-6-N-(3-azabicyclo[3.1.0]hexyl-3-benzyl)-2-cyclohexyl-2-hydroxy-2-(4-phenoxyphenyl)acetamide]",370 nM,3090 nM,> 1000 nM,,,,,,
"Cc1ccc(C(O)(C(=O)NC2C3CN(Cc4ccccc4)CC32)C2CCCCC2)cc1 (stereo not drawn) [Compound No. 50, (1α,5α,6α)-6-N-(3-azabicyclo[3.1.0]hexyl-3-benzyl)-2-cyclohexyl-2-hydroxy-2-(4-methylphenyl)acetamide]",1200 nM,138 nM,> 1000 nM,,,,,,
"CC(C)=CCCN1CC2C(C1)C2NC(=O)C(O)(c1ccccc1)C1CCCC1 (stereo not drawn) [Compound No. 65, (1α,5α,6α)-6-N-(3-azabicyclo[3.1.0]hexyl-3-(4-methyl-3-pentenyl))-2-cyclopentyl-2-hydroxy-2-phenyl acetamide]",33 nM,3.98 nM,1370 nM,33 nM,41.52,29.5 nM,4 nM,1370 nM,1350 nM
"O=C(N[C@H]1[C@@H]2CN(C3CC3)C[C@@H]21)C(O)(c1ccccc1)C1CCCCC1 (stereo partly drawn) [Compound No. 38, (1α,5α,6α)-6-N-(3-azabicyclo[3.1.0]hexyl-3-cyclopropyl)-2-cyclohexyl-2-hydroxy-2-phenyl acetamide]",1560 nM,288 nM,> 1000 nM,,,,,,
